The IC50 is the midpoint of a concentration-inhibition curve.

One assay addresses NTRK2(TRKB) (Homo sapiens, UniProt Q16620). Briefly: Caliper kinase assay: NTRK2 (TRKB). Conditions: Trk B, 0.01 μM.
In the next assay the target is TRKC(NTRK3) (Homo sapiens, UniProt Q16288). In words: Caliper kinase assay: TRKC (NTRK3). Conditions: Trk C, 0.01 μM.
Assay [1] has as its system Akt phosphorylation induced by IGF-1R. In words: Western blot analysis of Akt phosphorylation induced by IGF-1 in HT-29 cells. It counts as cell-based, Human. Particulars: for Levels of phosphorylated AKT in treated cells (pAKT/actin): HT-29 cells, IGF-1; for p-AKT relative to levels with 0.1 nM compound: Table B2 lower part; for Normalized phosphorylated AKT (relative to actin) levels relative to 0.1 nM compound treatment: Table B2 upper part; for pAKT relative to 0.1 nM compound: derivatives of Cpd. No. 8b. The method, boiled down: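 HT-29 cells grown 24 h in DME/F12 with 10% FBS, serum-starved 24 h, then exposed 2 h to compound at 0.1, 1, 10 or 100; controls received DMSO or 10 ng/mL IGF-1. Lysate soluble fractions quantified by BCA before western blotting for phospho-Akt.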

Another assay concerns the target T1, IGF-1R (Homo sapiens, UniProt P08069).
T1 construct: purchased Millipore 14-802
Briefly: In vitro IGF-1R enzymatic assay (ADP-Glo kinase assay). The class given is biochemical. Conditions: activated IGF-1R. On the procedure:
(§1) IC50 values of the compounds of the invention against IGF-1R and IR were measured in vitro using an ADP-Glo kinase assay Kit (Promega). […] Kinase reactions in both assays were conducted at 30° C. for 20 min with increasing concentrations of compounds of the invention.
Additional compounds of the invention were screened against activated IGF-1R.

The target in a further assay is PYK2 (Homo sapiens, UniProt Q14289). In words: Caliper kinase assay: PYK2 (called FAK2). Conditions: FAK2, 0.01 μM.
PYK2, sequence (Q14289 whole entry): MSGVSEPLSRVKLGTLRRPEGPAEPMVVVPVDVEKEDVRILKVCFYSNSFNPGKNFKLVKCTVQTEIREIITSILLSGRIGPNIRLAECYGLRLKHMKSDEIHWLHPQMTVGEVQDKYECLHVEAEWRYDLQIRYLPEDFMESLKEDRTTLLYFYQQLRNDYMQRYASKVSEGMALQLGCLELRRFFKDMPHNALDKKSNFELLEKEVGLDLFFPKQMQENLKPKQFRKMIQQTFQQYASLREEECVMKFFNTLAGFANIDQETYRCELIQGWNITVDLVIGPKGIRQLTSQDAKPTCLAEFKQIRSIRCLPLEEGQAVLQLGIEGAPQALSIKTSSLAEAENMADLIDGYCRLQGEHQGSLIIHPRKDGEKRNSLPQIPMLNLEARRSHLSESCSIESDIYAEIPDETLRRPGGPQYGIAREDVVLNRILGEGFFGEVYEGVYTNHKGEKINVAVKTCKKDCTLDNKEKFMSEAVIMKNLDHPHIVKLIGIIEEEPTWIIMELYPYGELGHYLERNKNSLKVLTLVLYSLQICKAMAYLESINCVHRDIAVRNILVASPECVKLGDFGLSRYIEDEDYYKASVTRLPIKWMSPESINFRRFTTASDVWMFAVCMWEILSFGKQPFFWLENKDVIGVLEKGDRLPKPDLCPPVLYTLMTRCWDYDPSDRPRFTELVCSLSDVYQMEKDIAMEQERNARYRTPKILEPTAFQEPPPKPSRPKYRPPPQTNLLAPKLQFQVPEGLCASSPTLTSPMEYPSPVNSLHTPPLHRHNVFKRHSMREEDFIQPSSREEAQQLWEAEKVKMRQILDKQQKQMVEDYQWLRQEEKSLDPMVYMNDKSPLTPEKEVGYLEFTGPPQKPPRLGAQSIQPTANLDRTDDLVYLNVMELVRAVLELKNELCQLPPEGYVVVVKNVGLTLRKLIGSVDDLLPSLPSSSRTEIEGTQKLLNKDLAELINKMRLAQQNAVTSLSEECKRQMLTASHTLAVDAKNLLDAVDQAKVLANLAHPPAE
Another assay addresses T2, AXL (Homo sapiens, UniProt P30530).
T2 sequence (P30530 26-894): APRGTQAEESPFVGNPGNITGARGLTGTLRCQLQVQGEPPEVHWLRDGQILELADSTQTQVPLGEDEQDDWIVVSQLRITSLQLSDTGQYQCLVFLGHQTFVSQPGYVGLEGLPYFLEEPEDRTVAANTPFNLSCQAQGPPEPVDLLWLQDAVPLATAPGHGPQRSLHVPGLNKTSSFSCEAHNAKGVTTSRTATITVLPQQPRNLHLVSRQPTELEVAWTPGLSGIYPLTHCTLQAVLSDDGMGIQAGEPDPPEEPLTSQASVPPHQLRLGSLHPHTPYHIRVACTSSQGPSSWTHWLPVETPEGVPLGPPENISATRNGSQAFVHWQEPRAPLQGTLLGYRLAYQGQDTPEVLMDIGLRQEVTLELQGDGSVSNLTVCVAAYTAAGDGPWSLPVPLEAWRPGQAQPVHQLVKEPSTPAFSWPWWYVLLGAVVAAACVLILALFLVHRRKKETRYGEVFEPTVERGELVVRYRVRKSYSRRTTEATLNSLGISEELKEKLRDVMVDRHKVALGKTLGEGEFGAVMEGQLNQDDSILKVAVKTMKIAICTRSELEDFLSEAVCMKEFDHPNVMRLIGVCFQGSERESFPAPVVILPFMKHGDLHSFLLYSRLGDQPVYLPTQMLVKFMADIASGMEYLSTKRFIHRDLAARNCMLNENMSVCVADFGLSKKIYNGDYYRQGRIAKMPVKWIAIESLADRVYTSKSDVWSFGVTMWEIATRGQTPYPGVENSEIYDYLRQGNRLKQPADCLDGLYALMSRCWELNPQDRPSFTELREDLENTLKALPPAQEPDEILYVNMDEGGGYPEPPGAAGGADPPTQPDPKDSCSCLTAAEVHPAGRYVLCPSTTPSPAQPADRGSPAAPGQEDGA
Briefly: Caliper kinase assay: AXL. Particulars: 0.01 μM.

Another assay addresses T3, IR (Homo sapiens, UniProt P06213).
T3 construct: purchased Millipore 14-803
Briefly: In vitro IR enzymatic assay (ADP-Glo kinase assay). It counts as biochemical. Particulars: activated IR; for inhibition at 0.03 µM: 30 nM. On the procedure:
as §1
Additional compounds of the invention were screened against activated IR.

A further assay has as its system UACC 812. In words: Cell Titer-Glo cell viability: UACC 812. It counts as cell-based. Particulars: UACC812, any concentration tested, 3 μM maximum. On the procedure: (§2) Compound nos. […] This panel of cell lines includes an ER− breast carcinoma, primary breast ductal carcinoma, prostate adenocarcinoma, mammary adenocarcinoma, mammary ductal carcinoma, mammary ductal carcinoma, ovary adenocarcinoma, ER+ breast carcinoma, ER− HER2+ mammary ductal carcinoma and an ER+ mammary ductal carcinoma, respectively.
(§3) This assay quantitates the ATP present in order to determine the number of viable cells in culture. Briefly, the compounds were incubated with the cells for 72 h, followed by cell lysis. The resulting luminescent signal is proportional to the amount of ATP present and, therefore, directly proportional to the number of cells present in culture.
(§4) Compounds 2b, 5, 6b and 10a were tested along with derivatives in viability assays as described above by Caliper LifeSciences Systems (Hanover, Md.), in A549, HCT-15, HCT-116, MCF-7, MDA-MB-231, OVCAR3, T47D, COLO205, HT-29, BT-20, HCC1187, HL-60, MDA-MB-175, SW-620, and UACC812 cells.
(§5) The inhibitory effects of Compound 8a were tested in two cell lines.
In general terms: In ATP-based viability assays light output follows the ATP content of the culture.

A further assay relates to MDA MB175. In words: Cell Titer-Glo cell viability: MDA MB175. It counts as cell-based. Particulars: MDA-MB-175, any concentration tested, 3 μM maximum. On the procedure:
as §2, §3, §4, §5

Where [2] appears, read: average, read-out: % Inh @ 30 nM Avg.
The mark [3] stands for this setting: 30 nM, average, read-out: % Inh @ 30 nM Avg.

Where two headings read alike, the source gives them in different places. Where only a bound is given, the exact number is not on record here.

T1 sequence (P08069 31-1367): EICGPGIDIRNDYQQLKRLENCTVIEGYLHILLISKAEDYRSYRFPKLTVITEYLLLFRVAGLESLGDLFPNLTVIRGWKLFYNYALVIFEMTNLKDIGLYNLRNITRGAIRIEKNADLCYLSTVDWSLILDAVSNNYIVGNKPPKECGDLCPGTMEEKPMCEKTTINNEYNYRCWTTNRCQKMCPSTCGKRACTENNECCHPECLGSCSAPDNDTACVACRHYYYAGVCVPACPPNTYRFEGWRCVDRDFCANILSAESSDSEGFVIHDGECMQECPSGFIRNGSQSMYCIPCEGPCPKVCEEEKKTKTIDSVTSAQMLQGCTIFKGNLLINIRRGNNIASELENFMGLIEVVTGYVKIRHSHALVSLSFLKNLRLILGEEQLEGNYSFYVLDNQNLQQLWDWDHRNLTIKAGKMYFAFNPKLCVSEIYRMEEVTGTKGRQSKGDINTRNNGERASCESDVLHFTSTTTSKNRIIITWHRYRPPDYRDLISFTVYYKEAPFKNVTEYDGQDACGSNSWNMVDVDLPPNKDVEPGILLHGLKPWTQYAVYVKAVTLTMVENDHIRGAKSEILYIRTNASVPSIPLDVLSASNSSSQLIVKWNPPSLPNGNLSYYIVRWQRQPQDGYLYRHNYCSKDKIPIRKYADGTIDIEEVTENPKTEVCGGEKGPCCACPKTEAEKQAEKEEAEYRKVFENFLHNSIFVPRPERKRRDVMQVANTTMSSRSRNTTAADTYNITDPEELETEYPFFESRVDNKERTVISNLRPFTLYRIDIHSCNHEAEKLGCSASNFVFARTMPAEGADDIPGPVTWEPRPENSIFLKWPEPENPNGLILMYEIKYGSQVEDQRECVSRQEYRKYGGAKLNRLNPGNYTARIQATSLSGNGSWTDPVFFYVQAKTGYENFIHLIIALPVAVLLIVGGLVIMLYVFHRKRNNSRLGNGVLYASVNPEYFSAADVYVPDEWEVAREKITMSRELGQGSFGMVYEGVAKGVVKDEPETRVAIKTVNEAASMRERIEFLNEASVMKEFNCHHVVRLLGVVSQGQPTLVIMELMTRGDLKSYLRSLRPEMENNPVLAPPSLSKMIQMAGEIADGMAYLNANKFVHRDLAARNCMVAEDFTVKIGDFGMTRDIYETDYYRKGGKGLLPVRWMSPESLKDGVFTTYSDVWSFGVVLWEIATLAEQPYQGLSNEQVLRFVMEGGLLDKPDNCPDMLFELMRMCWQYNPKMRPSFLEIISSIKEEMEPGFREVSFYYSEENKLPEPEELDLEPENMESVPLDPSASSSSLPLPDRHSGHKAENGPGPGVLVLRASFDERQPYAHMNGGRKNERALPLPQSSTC
T3 sequence (P06213 28-1382): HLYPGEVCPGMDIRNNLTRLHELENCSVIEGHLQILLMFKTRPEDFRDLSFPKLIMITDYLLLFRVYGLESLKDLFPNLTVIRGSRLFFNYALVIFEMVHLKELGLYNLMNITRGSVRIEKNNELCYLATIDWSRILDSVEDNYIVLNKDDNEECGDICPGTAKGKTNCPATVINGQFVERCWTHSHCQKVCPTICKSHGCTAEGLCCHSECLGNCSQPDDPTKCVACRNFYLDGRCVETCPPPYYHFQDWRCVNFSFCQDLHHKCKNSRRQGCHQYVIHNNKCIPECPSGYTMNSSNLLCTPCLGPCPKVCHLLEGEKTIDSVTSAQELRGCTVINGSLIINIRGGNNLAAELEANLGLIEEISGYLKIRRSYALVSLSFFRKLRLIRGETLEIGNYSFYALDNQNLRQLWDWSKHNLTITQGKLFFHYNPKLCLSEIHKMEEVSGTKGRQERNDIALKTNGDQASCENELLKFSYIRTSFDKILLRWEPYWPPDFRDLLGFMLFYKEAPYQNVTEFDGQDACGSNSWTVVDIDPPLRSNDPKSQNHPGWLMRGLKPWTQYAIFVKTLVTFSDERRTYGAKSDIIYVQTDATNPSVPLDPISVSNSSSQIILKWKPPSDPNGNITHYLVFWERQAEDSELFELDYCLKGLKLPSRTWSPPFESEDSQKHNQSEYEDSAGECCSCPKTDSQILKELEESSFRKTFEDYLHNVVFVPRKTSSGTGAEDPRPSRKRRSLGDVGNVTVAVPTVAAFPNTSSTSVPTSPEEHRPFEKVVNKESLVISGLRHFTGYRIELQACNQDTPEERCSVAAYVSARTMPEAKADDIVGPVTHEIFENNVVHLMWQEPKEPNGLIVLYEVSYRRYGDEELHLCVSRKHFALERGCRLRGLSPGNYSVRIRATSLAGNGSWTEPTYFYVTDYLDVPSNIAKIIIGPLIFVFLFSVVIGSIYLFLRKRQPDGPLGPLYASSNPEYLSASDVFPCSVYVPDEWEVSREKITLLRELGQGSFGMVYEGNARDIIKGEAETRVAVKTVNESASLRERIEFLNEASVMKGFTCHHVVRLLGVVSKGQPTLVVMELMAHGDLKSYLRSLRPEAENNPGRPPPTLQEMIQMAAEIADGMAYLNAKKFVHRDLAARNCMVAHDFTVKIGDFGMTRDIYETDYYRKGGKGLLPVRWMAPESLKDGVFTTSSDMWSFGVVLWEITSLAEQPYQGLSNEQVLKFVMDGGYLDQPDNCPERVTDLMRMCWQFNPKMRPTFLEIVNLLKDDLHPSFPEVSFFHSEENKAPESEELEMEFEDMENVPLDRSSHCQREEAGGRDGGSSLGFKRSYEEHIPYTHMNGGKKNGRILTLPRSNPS
NTRK2(TRKB), sequence (Q16620 32-822): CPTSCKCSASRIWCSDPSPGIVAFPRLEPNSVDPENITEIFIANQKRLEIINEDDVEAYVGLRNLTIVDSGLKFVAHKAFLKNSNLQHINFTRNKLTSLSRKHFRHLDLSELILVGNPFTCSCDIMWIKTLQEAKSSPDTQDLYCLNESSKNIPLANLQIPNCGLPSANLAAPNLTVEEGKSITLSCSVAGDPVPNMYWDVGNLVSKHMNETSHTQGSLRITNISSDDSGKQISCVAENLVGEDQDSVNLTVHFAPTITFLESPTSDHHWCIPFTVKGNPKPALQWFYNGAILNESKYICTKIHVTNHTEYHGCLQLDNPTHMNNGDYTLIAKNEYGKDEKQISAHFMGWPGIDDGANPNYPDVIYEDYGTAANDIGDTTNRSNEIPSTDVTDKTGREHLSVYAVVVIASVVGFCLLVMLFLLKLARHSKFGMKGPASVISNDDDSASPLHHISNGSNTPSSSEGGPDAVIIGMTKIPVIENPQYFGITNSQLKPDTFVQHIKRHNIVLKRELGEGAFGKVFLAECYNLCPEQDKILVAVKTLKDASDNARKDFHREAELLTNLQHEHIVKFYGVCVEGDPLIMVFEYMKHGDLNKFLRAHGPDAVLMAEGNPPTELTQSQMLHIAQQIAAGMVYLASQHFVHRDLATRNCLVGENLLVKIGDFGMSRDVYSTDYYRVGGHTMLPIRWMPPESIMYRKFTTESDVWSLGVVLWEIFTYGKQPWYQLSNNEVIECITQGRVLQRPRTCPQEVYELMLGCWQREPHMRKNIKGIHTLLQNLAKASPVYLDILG
Protocol for AXL: (§6) The compound was tested at concentrations of 1.0×10^−8 and 1.0×10^−9 M in the RapidKinase192™ panel in duplicate. […] The screening was performed using the Caliper EZReader2, a 4-sipper LabChip, and ProfilerPro Kinase Selectivity Assay Kits 1 and 2. The assay measures the conversion of a fluorescent peptide substrate to a phosphorylated product. Briefly, the reaction mixture was introduced through a capillary sipper onto the microfluidic chip, where the substrate and product were electrophoretically separated and detected by laser-induced fluorescence. The time-dependent fluorescence signal indicates the extent of the reaction.
(§7) The kinases tested were AurA, AurB, AurC, AXL, FAK2, IGF1R, InsR, Mer, MET, Trk B and Trk C.
(§8) The assays were conducted using the Caliper LabChip 3000 and a 12-sipper LabChip as described above.
Protocol for NTRK2(TRKB): as §6, §7, §8
Protocol for PYK2: as §6, §7, §8
Protocol for TRKC(NTRK3): as §6, §7, §8

Take `O=C(Nc1ccc(F)nc1)C1CC(O)CN1c1nc2c(c(Nc3cc(C4CC4)[nH]n3)n1)CCC2` (racemic) [Compound 10a, (2S,4R)-1-(4-(5-cyclopropyl-1H-pyrazol-3-ylamino)-6,7-dihydro-5H-cyclopenta[d]pyrimidin-2-yl)-N-(6-fluoropyridin-3-yl)-4-hydroxypyrrolidine-2-carboxamide]: the inhibition of kinase result against NTRK2(TRKB), against TRKC(NTRK3), at PYK2 and against AXL was “strongly inhibited” each time. For the same compound, the “Levels of phosphorylated AKT in treated cells (pAKT/actin)” value (“Levels … (pAKT/actin)” below) is 2.28 in [1] (0.1 nM compound), 0.54 in assay [1] (1 nM compound), 0.00 in assay [1] (10 nM compound) and 0.01 in assay [1] (100 nM compound). Further, the “p-AKT relative to levels with 0.1 nM compound” value (shortened to “p-AKT relative to levels”) turned out to be 1.0 in assay [1] (0.1 nM), 0.2 in assay [1] (1 nM), 0.0 in assay [1] (10 nM) and 0.0 in assay [1] (100 nM). In addition, the “Normalized phosphorylated AKT (relative to actin) levels relative to 0.1 nM compound treatment” value in assay [1] (0.1 nM) amounted to 1.0; in assay [1] (1 nM), 0.2; in assay [1] (10 nM), 0.0; in assay [1] (100 nM), 0.0. Moreover, the “pAKT relative to 0.1 nM compound” value in assay [1] (0.1 nM) was 1.00; in [1] (1 nM) it was 0.69; in assay [1] (10 nM), 0.16; in assay [1] (100 nM), 0.01. The IC50 against IGF-1R and against IR was 33 nM in each case. Further, at IGF-1R (30 nM, average), the “% Inh @ 30 nM Avg” value amounted to 32%. For the same compound, at IR (setting [2]), the inhibition at 0.03 µM amounted to 54%.

Turning to `CC(C)c1cc(Nc2nc(N3CCC[C@H]3C(=O)Nc3ccc(F)nc3)nc3c2CCC3)n[nH]1` (single isomer, unassigned) [Compound 8a], the “Levels … (pAKT/actin)” value in assay [1] (0.1 nM compound) amounted to 1.93; in [1] (1 nM compound), 2.27; in assay [1] (10 nM compound), 1.17; in assay [1] (100 nM compound) it was 1.78. The “p-AKT relative to levels” value was 1.0 in [1] (0.1 nM), 1.2 in assay [1] (1 nM), 0.6 in [1] (10 nM) and 0.9 in assay [1] (100 nM). Also, the “Normalized phosphorylated AKT (relative to actin) levels relative to 0.1 nM compound treatment” value in assay [1] (0.1 nM) amounted to 1.0; in [1] (1 nM) it was 1.2; in assay [1] (10 nM) it was 0.6; in assay [1] (100 nM) it was 0.9. The inhibition at 0.03 µM on IGF-1R (setting [3]) worked out at 0%. Also, the “proliferation as compared to the untreated control” value in the assay on UACC 812 and in the assay on MDA MB175 was at least 68% throughout.

On to `O=C(Nc1cnccn1)C1CCCN1c1nc2c(c(Nc3cc(C4CC4)[nH]n3)n1)CCC2` (single isomer, unassigned) [Compound 6b, 1-(4-(3-cyclopropyl-1H-pyrazol-5-ylamino)-6,7-dihydro-5H-cyclopenta[d]pyrimidin-2-yl)-N-(pyrazin-2-yl)pyrrolidine-2-carboxamide], for which the inhibition of kinase entry against NTRK2(TRKB), at TRKC(NTRK3), against PYK2 and against AXL was “strongly inhibited” in each case. The “Levels … (pAKT/actin)” value in assay [1] (0.1 nM compound) came to 0.87; in [1] (1 nM compound), 0.18; in assay [1] (10 nM compound), 0.00; in assay [1] (100 nM compound), 0.00. Further, the “p-AKT relative to levels” value in [1] (0.1 nM) is 1.0; in [1] (1 nM), 0.2; in [1] (10 nM), 0.0; in [1] (100 nM) it was 0.0. The “Normalized phosphorylated AKT (relative to actin) levels relative to 0.1 nM compound treatment” value in assay [1] (0.1 nM) is listed as 1.0; in assay [1] (1 nM), 0.2; in assay [1] (100 nM), 0.0. For the same compound, the “pAKT relative to 0.1 nM compound” value in assay [1] (0.1 nM) was 1.00; in [1] (1 nM), 0.39; in [1] (10 nM) it was 0.02; in assay [1] (100 nM) it was 0.01. In addition, the inhibition at 0.03 µM at IGF-1R (30 nM, N1, read-out: % Inh @ 30 nM (N1)) was 93%; on IGF-1R (30 nM, N2, read-out: % Inh @ 30 nM (N2)) it was 95%; at IGF-1R (setting [3]), 94%; at IR (N1, read-out: % Inh @ 30 nM (N1)) it was 92%; at IR (N2, read-out: % Inh @ 30 nM (N2)), 91%; on IR (setting [2]), 92%.

(Values after patent US9499519B2, “Fused pyrimidine compounds and use thereof” (Medivation Technologies, Inc., priority 2012, dated 2016).)
